Literature values, collected in US20200376001A1, “USE OF ANDROGEN FOR TREATING GASTROINTESTINAL DISORDERS” (priority 2012, published 2020).
Read-outs that look alike come from different tables or passages of the source.

Legend:
[1] = molecular target: T1, Sex Hormone Binding Globulin (SHBG) (Homo sapiens, UniProt P04278); conditions: greater than that of testosterone
T1 sequence (P04278 30-402): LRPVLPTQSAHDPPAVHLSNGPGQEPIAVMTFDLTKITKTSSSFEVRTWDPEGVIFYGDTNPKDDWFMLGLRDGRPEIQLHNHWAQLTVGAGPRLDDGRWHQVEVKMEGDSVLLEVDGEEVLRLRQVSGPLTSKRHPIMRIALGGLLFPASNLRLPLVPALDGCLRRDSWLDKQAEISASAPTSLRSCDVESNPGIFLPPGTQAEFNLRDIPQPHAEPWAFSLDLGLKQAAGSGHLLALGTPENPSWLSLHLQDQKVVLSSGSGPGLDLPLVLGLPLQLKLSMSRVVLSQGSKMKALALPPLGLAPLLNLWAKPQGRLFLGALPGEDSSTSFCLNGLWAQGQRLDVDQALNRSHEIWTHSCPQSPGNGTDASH

[2] = system: Sex Hormone Binding Globulin (SHBG); conditions: for decrease of SHBG (serum concentration): serum SHBG in the body after administration of synthetic androgen
[3] = compared with danazol

SMILES	affinity for SHBG relative to testosterone [1]	decrease of SHBG (serum concentration) [2] [%]	decrease of SHBG (serum concentration) ([2]; listed as Danazol)	side effects and hirsutism [3]	potency mg for mg relative to danazol ([2]; SHBG reduction, relative to danazol) [times]
C[C@]12CC[C@H]3[C@@H](CCC4=CC(=O)CC[C@@H]43)[C@@H]1CC[C@@H]2O [Nandrolone, nandrolone]	about three				
C#C[C@]1(O)CC[C@H]2[C@@H]3CCC4=Cc5oncc5C[C@]4(C)[C@H]3CC[C@@]21C [danazol]		80	does this as well		
C[C@]12Cc3c[nH]nc3C[C@@H]1CC[C@@H]1[C@@H]2CC[C@@]2(C)[C@H]1CC[C@]2(C)O [stanozolol]		80		reduces side effects and hirsutism caused by danazol	100
